Experimental data as given in PubChem BioAssay (NCI).
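Method: 48-hour compound exposure of cells in 96-well plates, five concentrations, linear interpolation of endpoints. At the TGI there is no net growth.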

Experiments:
Experiment in all cases: inhibition of tumour cell growth, NCI panel, 48 h
[1] = tested on: OVCAR-5 ovarian
[2] = tested on: HOP-62 NSCLC
[3] = tested on: COLO 205 colon
[4] = tested on: OVCAR-4 ovarian
[5] = tested on: XF 498 CNS
[6] = tested on: A498 renal
[7] = tested on: SK-MEL-2 melanoma
[8] = tested on: M19-MEL melanoma
[9] = tested on: HOP-18 NSCLC
[10] = tested on: ACHN renal
[11] = tested on: EKVX NSCLC
[12] = tested on: HL-60(TB) leukemia
[13] = tested on: RPMI-8226 leukemia
[14] = tested on: CAKI-1 renal
[15] = tested on: HCT-116 colon
[16] = tested on: UACC-62 melanoma
[17] = tested on: DMS 273 small cell lung
[18] = tested on: MOLT-4 leukemia
[19] = tested on: NCI-H226 lung
[20] = tested on: U251 CNS
[21] = tested on: SNB-75 CNS
[22] = tested on: SNB-78 CNS
[23] = tested on: HCC-2998 colon
[24] = tested on: CCRF-CEM leukemia
[25] = tested on: HT29 colon
[26] = tested on: SNB-19 CNS
[27] = tested on: SK-OV-3 ovarian
[28] = tested on: SK-MEL-28 melanoma
[29] = tested on: NCI-H23 lung
[30] = tested on: K-562 leukemia
[31] = tested on: RXF-631 renal
[32] = tested on: SW-620 colon
[33] = tested on: IGROV1 ovarian
[34] = tested on: OVCAR-8 ovarian
[35] = tested on: DLD-1 colon
[36] = tested on: LOX IMVI melanoma
[37] = tested on: M14 melanoma
[38] = tested on: NCI-H522 lung
[39] = tested on: SF-268 CNS
[40] = tested on: 786-0 renal
[41] = tested on: UO-31 renal
[42] = tested on: LXFL 529 NSCLC
[43] = tested on: NCI-H460 lung
[44] = tested on: A549 NSCLC
[45] = tested on: KM12 colon
[46] = tested on: MALME-3M melanoma
[47] = tested on: TK-10 renal
[48] = tested on: UACC-257 melanoma
[49] = tested on: SK-MEL-5 melanoma
[50] = tested on: SF-539 CNS
[51] = tested on: KM20L2 colon
[52] = tested on: HOP-92 NSCLC
[53] = tested on: OVCAR-3 ovarian
[54] = tested on: RXF 393 renal
[55] = tested on: DMS 114 small cell lung
[56] = tested on: SF-295 CNS
[57] = tested on: HCT-15 colon
[58] = tested on: SN12C renal

COc1ccc(C2Oc3c(cc(O)c(OC)c3C)[C@@H]2C)cc1OC (some centres not stated)
TGI [1]: > 100 µM
TGI [2]: > 100 µM
TGI [3]: > 100 µM
TGI [4]: > 100 µM
TGI [5]: > 100 µM
TGI [6]: > 100 µM
TGI [7]: > 100 µM
TGI [8]: > 100 µM
TGI [9]: > 100 µM
TGI [10]: > 100 µM
TGI [11]: > 100 µM
TGI [12]: > 100 µM
TGI [13]: > 100 µM
TGI [14]: > 100 µM
TGI [15]: > 100 µM
TGI [16]: > 100 µM
TGI [17]: > 100 µM
TGI [18]: > 100 µM
TGI [19]: > 100 µM
TGI [20]: > 100 µM
TGI [21]: > 100 µM
TGI [22]: > 100 µM
TGI [23]: > 100 µM
TGI [24]: > 100 µM
TGI [25]: > 100 µM
TGI [26]: > 100 µM
TGI [27]: > 100 µM
TGI [28]: > 100 µM
TGI [29]: > 100 µM
TGI [30]: > 100 µM
TGI [31]: > 100 µM
TGI [32]: > 100 µM
TGI [33]: > 100 µM
TGI [34]: > 100 µM
TGI [35]: > 100 µM
TGI [36]: > 100 µM
TGI [37]: > 100 µM
TGI [38]: > 100 µM
TGI [39]: > 100 µM
TGI [40]: > 100 µM
TGI [41]: > 100 µM
TGI [42]: > 100 µM
TGI [43]: > 100 µM
TGI [44]: > 100 µM
TGI [45]: > 100 µM
TGI [46]: > 100 µM
TGI [47]: > 100 µM
TGI [48]: > 100 µM
TGI [49]: > 100 µM
TGI [50]: > 100 µM
TGI [51]: > 100 µM
TGI [52]: > 100 µM
TGI [53]: > 100 µM
TGI [54]: > 100 µM
TGI [55]: > 100 µM
TGI [56]: > 100 µM

COc1ccccc1C1C(C(=O)Nc2ccccc2)=C(C)NC(C)=C1C(=O)Nc1ccccc1
TGI [1]: > 100 µM
TGI [2]: > 100 µM
TGI [3]: 65.2 µM
TGI [4]: > 100 µM
TGI [5]: > 100 µM
TGI [6]: 82.5 µM
TGI [7]: > 100 µM
TGI [8]: > 100 µM
TGI [9]: > 100 µM
TGI [10]: > 100 µM
TGI [57]: > 100 µM
TGI [11]: > 100 µM
TGI [13]: > 100 µM
TGI [14]: > 100 µM
TGI [15]: > 100 µM
TGI [16]: > 100 µM
TGI [17]: > 100 µM
TGI [18]: 56.8 µM
TGI [19]: > 100 µM
TGI [20]: > 100 µM
TGI [21]: > 100 µM
TGI [22]: > 100 µM
TGI [23]: > 100 µM
TGI [25]: > 100 µM
TGI [26]: > 100 µM
TGI [27]: > 100 µM
TGI [28]: > 100 µM
TGI [29]: > 100 µM
TGI [30]: > 100 µM
TGI [31]: > 100 µM
TGI [32]: > 100 µM
TGI [33]: > 100 µM
TGI [34]: > 100 µM
TGI [36]: > 100 µM
TGI [37]: > 100 µM
TGI [38]: > 100 µM
TGI [39]: > 100 µM
TGI [40]: > 100 µM
TGI [41]: > 100 µM
TGI [42]: > 100 µM
TGI [43]: > 100 µM
TGI [45]: > 100 µM
TGI [58]: > 100 µM
TGI [46]: > 100 µM
TGI [47]: > 100 µM
TGI [48]: > 100 µM
TGI [49]: > 100 µM
TGI [50]: > 100 µM
TGI [51]: > 100 µM
TGI [52]: > 100 µM
TGI [53]: > 100 µM
TGI [54]: > 100 µM
TGI [55]: > 100 µM
TGI [56]: > 100 µM

COc1ccc(OC)c(NC(=O)C(=O)C(C(C)=O)c2nc3ccc(Cl)cc3[nH]c2=O)c1 (configuration not stated)
TGI [1]: > 50 µM
TGI [2]: > 50 µM
TGI [3]: > 50 µM
TGI [4]: > 50 µM
TGI [5]: > 50 µM
TGI [6]: > 50 µM
TGI [7]: > 50 µM
TGI [8]: > 50 µM
TGI [9]: > 50 µM
TGI [10]: > 50 µM
TGI [57]: > 50 µM
TGI [11]: > 50 µM
TGI [12]: > 50 µM
TGI [13]: > 50 µM
TGI [14]: > 50 µM
TGI [15]: > 50 µM
TGI [16]: > 50 µM
TGI [17]: > 50 µM
TGI [18]: > 50 µM
TGI [19]: > 50 µM
TGI [20]: > 50 µM
TGI [21]: > 50 µM
TGI [22]: > 50 µM
TGI [23]: > 50 µM
TGI [24]: > 5 µM
TGI [25]: > 50 µM
TGI [26]: > 50 µM
TGI [27]: > 50 µM
TGI [28]: > 50 µM
TGI [29]: > 50 µM
TGI [30]: > 50 µM
TGI [31]: > 50 µM
TGI [32]: > 50 µM
TGI [33]: > 50 µM
TGI [34]: > 50 µM
TGI [35]: > 50 µM
TGI [36]: > 50 µM
TGI [37]: > 50 µM
TGI [39]: > 50 µM
TGI [40]: > 50 µM
TGI [41]: > 50 µM
TGI [42]: > 50 µM
TGI [43]: > 50 µM
TGI [44]: > 50 µM
TGI [45]: > 50 µM
TGI [58]: > 50 µM
TGI [46]: > 50 µM
TGI [47]: > 50 µM
TGI [48]: > 50 µM
TGI [49]: > 50 µM
TGI [50]: > 50 µM
TGI [51]: > 50 µM
TGI [52]: > 50 µM
TGI [53]: > 50 µM
TGI [54]: > 50 µM
TGI [55]: > 50 µM
TGI [56]: > 50 µM
